Here are results for 3 compounds from ChEMBL document CHEMBL1201862, “PubChem BioAssay data set” (2004).

Each structure is given as a SMILES string.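 The compound was tested at five concentrations on cells cultured in 96-well plates, with a 48-hour exposure period. GI50 marks 50% less growth.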 The source made the active and inactive calls. Cut-off read from the data, not from the text of the source: active = GI50 up to about 1.1 µM and inactive = higher.

Among the test systems are RXF 393; OVCAR-8; NCI-H23; IGROV-1; HCT-116; SK-OV-3; BT-549; NCI-H226; COLO 205; SF-268; OVCAR-4; DU-145; MCF7; OVCAR-5; Hs-578T; CAKI-1; SK-MEL-2; RPMI-8226; T47D; EKVX.
What all share (assay): DTP human tumour cell line panel, 48 h

Usually GI50 stands for the concentration giving 50% growth inhibition.

Regarding `COc1cc2oc(-c3ccc(O)cc3)c(OC3OC(C)C(O)C(O)C3O)c(=O)c2c(O)c1OC` (stereo not given), the GI50 with RXF 393 is > 100 µM (inactive); with OVCAR-8, 91 µM (inactive); with NCI-H23 it was 36.5 µM (inactive); with IGROV-1 it was > 100 µM (inactive); in the assay with HCT-116, 80.4 µM (inactive); in the assay on SK-OV-3 it was > 100 µM (inactive). For the same compound, the GI50 with BT-549 is 62100 nM (inactive); in the assay with NCI-H226, > 100 µM (inactive); in the assay with COLO 205, > 100 µM (inactive); in the assay on SF-268 it was > 100 µM (inactive); with OVCAR-4, 57800 nM (inactive); in the assay with DU-145, 99.8 µM (inactive). Also, the GI50 in the assay on MCF7 was 55700 nM (inactive); in the assay with OVCAR-5, > 100 µM (inactive); in the assay with Hs-578T, > 100 µM (inactive); in the assay on CAKI-1, > 100 µM (inactive); in the assay on SK-MEL-2, > 100 µM (inactive); in the assay on RPMI-8226, 16.7 µM (inactive). Further, the GI50 in the assay on T47D and in the assay with EKVX was > 100 µM (inactive) each time.

Consider `CC(=O)NC1=C(C)C(=O)c2c(nc3n2CCC3OC(=O)c2ccccc2)C1=N` (stereo not given), for which the GI50 in the assay on RXF 393 is 1.29 µM (inactive); in the assay with OVCAR-8, 1.04 µM (active); in the assay with NCI-H23, 1.46 µM (inactive); in the assay with IGROV-1, 1.74 µM (inactive); in the assay with HCT-116, 3.15 µM (inactive); in the assay with SK-OV-3, 3.36 µM (inactive). The GI50 in the assay on BT-549 is 689 nM (active); with NCI-H226, 4.24 µM (inactive); with COLO 205, 1.38 µM (inactive); in the assay with SF-268, 2.18 µM (inactive); in the assay with OVCAR-4, 518 nM (active); in the assay with DU-145, 1.97 µM (inactive). Besides, the GI50 in the assay with MCF7 is 755 nM (active); with OVCAR-5 it was 2.98 µM (inactive); with Hs-578T, 2.06 µM (inactive); with CAKI-1, 1.84 µM (inactive); with SK-MEL-2 it was 1.76 µM (inactive); in the assay on RPMI-8226, 1.31 µM (inactive). In addition, the GI50 in the assay on T47D is 1.85 µM (inactive); in the assay on EKVX, 2.55 µM (inactive).

Turning to `CC(=O)Oc1ccc(C(c2ccc(OC(C)=O)cc2)c2ccccn2)cc1` [BISACODYL], the GI50 in the assay with RXF 393 was 13.8 µM (inactive); in the assay with OVCAR-8, 1.4 µM (inactive); with NCI-H23 it was 3.83 µM (inactive); in the assay with IGROV-1 it was 71.6 µM (inactive); in the assay on HCT-116, 70.6 µM (inactive); in the assay with SK-OV-3 it was 59.4 µM (inactive). For the same compound, the GI50 is 84.3 nM (active) in the assay on BT-549; 87.3 µM (inactive) with NCI-H226; 0.406 µM (active) in the assay with COLO 205; > 100 µM (inactive) in the assay on SF-268; 146 nM (active) in the assay on OVCAR-4; > 84.3 µM (inactive) in the assay on DU-145. Moreover, the GI50 was 378 nM (active) in the assay on MCF7; 22.1 µM (inactive) with OVCAR-5; 0.232 µM (active) in the assay with Hs-578T; > 100 µM (inactive) with CAKI-1; 98.6 µM (inactive) in the assay with SK-MEL-2; 65.3 µM (inactive) with RPMI-8226. Further, the GI50 in the assay on T47D is 0.228 µM (active); in the assay with EKVX, 18.8 µM (inactive).
